Experimental data reported in ChEMBL document CHEMBL4699486, “Fragment-based lead discovery of a novel class of small molecule antagonists of neuropeptide B/W receptor subtype 1 (GPR7)” (Bioorg Med Chem Lett, 2020).
pIC50: −log10 of the molar value.

Target: T1, Neuropeptides B/W receptor type 1 (Homo sapiens, UniProt P48145)
T1 sequence (P48145 whole entry): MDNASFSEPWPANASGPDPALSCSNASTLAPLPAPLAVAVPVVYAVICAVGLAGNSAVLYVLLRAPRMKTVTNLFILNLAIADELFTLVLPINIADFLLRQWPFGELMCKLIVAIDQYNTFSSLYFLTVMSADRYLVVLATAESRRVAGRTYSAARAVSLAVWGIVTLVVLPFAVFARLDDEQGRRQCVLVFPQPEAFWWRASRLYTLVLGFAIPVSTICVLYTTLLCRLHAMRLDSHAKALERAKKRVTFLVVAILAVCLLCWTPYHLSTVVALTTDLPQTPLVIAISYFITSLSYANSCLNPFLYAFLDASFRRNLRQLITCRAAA
Assay: Antagonist activity at human NPBWR1 assessed as inhibition of agonist-induced cAMP accumulation by cAMP assay
Format: functional

Row | pIC50 | Structure (SMILES)
1 | < 4.50 | O=[N+]([O-])c1ccc2[nH]c(-c3ccc(Cl)c(Br)c3)nc2c1
2 | 5.00 | O=[N+]([O-])c1ccc2[nH]c(-c3cccc(Cl)c3)nc2c1
3 | 5.51 | FC(F)(F)c1ccc2[nH]c(-c3ccc(-c4nnc[nH]4)cc3)nc2c1
4 | 5.86 | Cc1ccc(-c2nc3cc([N+](=O)[O-])ccc3[nH]2)cc1C
5 | 5.99 | CCc1ccc(-c2nc3cc([N+](=O)[O-])ccc3[nH]2)cc1
6 | 5.74 | O=[N+]([O-])c1ccc2[nH]c(-c3ccc(N4CCCC4)cc3)nc2c1
7 | 5.17 | O=[N+]([O-])c1ccc2[nH]c(-c3ccccc3N3CCCC3)nc2c1
8 | 4.97 | O=[N+]([O-])c1ccc2nc(-c3ccccc3Cl)[nH]c2c1
9 | 5.31 | O=[N+]([O-])c1ccc2[nH]c(-c3ccc(-c4ccccc4)cc3)nc2c1
10 | 5.50 | CC(C)(C)c1ccc(-c2nc3cc([N+](=O)[O-])ccc3[nH]2)cc1
11 | < 4.50 | CC(=O)c1ccccc1-c1nc2cc([N+](=O)[O-])ccc2[nH]1
12 | 5.00 | O=[N+]([O-])c1ccc2[nH]c(-c3ccccc3)nc2c1
13 | 5.76 | O=[N+]([O-])c1ccc2[nH]c(-c3ccc(Cl)cc3Br)nc2c1
14 | 5.92 | FC(F)(F)c1ccc2[nH]c(-c3ccccc3)nc2c1
15 | 5.92 | FC(F)(F)c1ccc2[nH]c(-c3ccc(-c4ccoc4)cc3)nc2c1
16 | 5.92 | FC(F)(F)c1ccc2[nH]c(-c3ccc(-c4c[nH]nc4C(F)(F)F)cc3)nc2c1
17 | < 4.50 | O=[N+]([O-])c1ccc2[nH]c(-c3ccc(C(F)(F)F)cc3)nc2c1

Row | pIC50 | Structure (SMILES)
18 | 5.22 | COc1ccc(-c2nc3cc([N+](=O)[O-])ccc3[nH]2)cc1
19 | 5.07 | Nc1ccc(-c2nc3cc([N+](=O)[O-])ccc3[nH]2)cc1
20 | 5.81 | Cc1ccc(-c2nc3cc([N+](=O)[O-])ccc3[nH]2)c(C)c1
21 | 5.22 | O=[N+]([O-])c1ccc2[nH]c(-c3cccc(N4CCCC4)c3)nc2c1
22 | 5.64 | Cc1cc(-c2nc3cc([N+](=O)[O-])ccc3[nH]2)ccc1Cl
23 | 5.60 | Cc1cc(Cl)ccc1-c1nc2cc([N+](=O)[O-])ccc2[nH]1
24 | 6.14 | NCc1ccc(-c2ccc(-c3nc4cc(C(F)(F)F)ccc4[nH]3)cc2)cc1
25 | 5.54 | O=[N+]([O-])c1ccc2nc(-c3ccc(Cl)cc3Cl)[nH]c2c1
26 | 5.83 | Cn1cc(-c2ccc(-c3nc4cc(C(F)(F)F)ccc4[nH]3)cc2)cn1
27 | < 4.50 | O=[N+]([O-])c1ccc2nc(-c3ccc(Cl)c(Cl)c3)[nH]c2c1
28 | 5.57 | O=[N+]([O-])c1ccc2nc(-c3ccc(Cl)cc3)[nH]c2c1
29 | < 4.50 | CC(=O)c1cccc(-c2nc3cc([N+](=O)[O-])ccc3[nH]2)c1
30 | 5.03 | CC(=O)c1ccc(-c2nc3cc([N+](=O)[O-])ccc3[nH]2)cc1
31 | 6.69 | O=[N+]([O-])c1ccc2[nH]c(-c3c(Cl)cc(Cl)cc3I)nc2c1
32 | 5.82 | Cc1ccc(-c2nc3cc([N+](=O)[O-])ccc3[nH]2)cc1
33 | < 4.50 | NS(=O)(=O)c1ccc(-c2nc3cc([N+](=O)[O-])ccc3[nH]2)cc1
